Patent publication US8217085B2 (priority 2009, dated 2012)
Several values for one entry are separate records, joined by “and”; a condition that tells them apart may be missing. Equal entries are not always repeated. Where two headings read alike, the source gives them in different places.

Columns and labels:
[1] = system: ATCC strain 43300 Staphylococcus aureus; experiment: Survival of MRSA in MSM alone, 24 and 48 hours (USP<51> Antimicrobial Effectiveness template); conditions: 5-16% MSM alone, 24 or 48 hour time point
Protocol: USP<51> Antimicrobial Effectiveness protocol was used as the template experimental paradigm. […] All concentrations were plated out to the 10^−7 dilutionsto ascertain cfu/ml.
Material was calculated on a 10 ml volume.
All tubes were inoculated with a dilution of MRSA giving a final level of colony forming units of 2.0×10^5/ml (Log=5.23). The tubes were incubated at 25° C. and mixed periodically. Plating was done at 24 and 48 hours. Each condition was plated by diluting 1 ml of growth material into 9 ml of MLB diluent broth. This mixture was serial diluted down to 10^−7, and 1 ml placed in a sterile petri dish at each dilution point. 20 mls of TSA was added to each dilution, swirled and allowed to solidify. All dilutions were placed in a 35° C. incubator for 24 hours. Bacterial colonies on each plate were counted and colony counts changed into log format. A positive and negative control was ascertained.

[2] = system: ATCC strain 43300 Staphylococcus aureus
Protocol: Additional antibiotic was added every 24 hours. The growth periods tested were 24 (FIG. 5), 48, 72, 96 and 120 hours.
USP<51> Antimicrobial Effectiveness protocol was used as the template experimental paradigm. […] All concentrations were plated out to the 10^−7 dilutions to ascertain cfu/ml. […] Additional antibiotic was added at the initial concentration every 24 hours.
ATCC strain 43300 Staphylococcus aureus was streaked out for isolations. An isolated colony was chosen, streaked again and incubated. Isolate was chosen and then diluted to a McFarland standard of one. The estimated value was then taken to inoculate tubes containing growth media and 12, 30 or 60 μg/ml methicillin with approximately 10^5 cfu/ml. These tubes were incubated and plated for counting cfu.
Material was calculated on a 10 ml volume. Sterile methicillin was added to each experimental condition to a final concentration of 12, 30 or 60 μg/ml antibiotic. Lactose Broth positive controls both with and without the 12 μg/ml, 30 μg/ml, 60 μg/ml antibiotic were inoculated with MRSA. […] Tubes were set up in singlet, but plated in triplicate, as described below.
All tubes were then inoculated with a dilution of the selected ATCC strain 43300 Staphylococcus aureus clone giving a final level of colony forming units of 1.49×10^5/ml (log=5.17). The tubes were incubated at 25° C. and mixed periodically. Antibiotic was re-inoculated every 24 hours at the initial concentration to maintain pressure on the organism. Plating was done at 24, 48, 72, and 120 hours. Each condition was plated by diluting 1 ml of growth material into 9 ml of MLB diluent broth. […] This mixture was serial diluted down to 10^−7 with 1 ml placed in triplicate in a sterile petri dish at each dilution point. 20 mls of TSA was added to each dilution, swirled and allowed to solidify. All dilutions were placed in a 35° C. incubator for 24 to 72 hours. Bacterial colonies on each plate were counted and the average taken then changed into log format.

[3] = system: ATCC strain 43300 Staphylococcus aureus; remark: listed apart in the source
Protocol: Additional antibiotic was added every 24 hours.
USP<51> Antimicrobial Effectiveness protocol was used as the template experimental paradigm. […] All concentrations were plated out to the 10^−7 dilutionsto ascertain cfu/ml. […] Additional antibiotic was added at the initial concentration every 24 hours.
ATCC strain 43300 Staphylococcus aureus was streaked out for isolations. An isolated colony was chosen, streaked again and incubated. Isolate was chosen and then diluted to a McFarland standard of one. The estimated value was then taken to inoculate tubes containing growth media and 12, 30 or 60 μg/ml oxacillin with approximately 10^5 cfu/ml. These tubes were incubated and plated for counting cfu.
Material was calculated on a 10 ml volume. Sterile oxacillin was added to each experimental condition to a final concentration of 12, 30 or 60 μg/ml antibiotic.
All tubes were then inoculated with a dilution of the selected ATCC strain 43300 Staphylococcus aureus clone giving a final level of colony forming units of 3.3×10^5/ml (log=5.52). The tubes were incubated at 25° C. and mixed periodically. Antibiotic was re-inoculated every 24 hours at the initial concentration to maintain pressure on the organism. Plating was done at 24, 48, 72, and 120 hours. Each condition was plated by diluting 1 ml of growth material into 9 ml of MLB diluent broth. […] This mixture was serial diluted down to 10^−7 with 1 ml placed in triplicate in a sterile petri dish at each dilution point. 20 mls of TSA was added to each dilution, swirled and allowed to solidify. All dilutions were placed in a 35° C. incubator for 24 to 72 hours. Bacterial colonies on each plate were counted and the average taken then changed into log format. Any cfu/ml observed greater than 3.3×10^5 (log=5.5) were recorded as >3.3×10^5.

[4] = 5% MSM, 12 μg/ml oxacillin, 24 hours
[5] = 5% MSM, 30 μg/ml oxacillin, 24 hours
[6] = 5% MSM, 60 μg/ml oxacillin, 24 hours
[7] = 6% MSM, 12 μg/ml oxacillin, 24 hours
[8] = 6% MSM, 30 μg/ml oxacillin, 24 hours
[9] = 6% MSM, 60 μg/ml oxacillin, 24 hours
[10] = 7% MSM, 12 μg/ml oxacillin, 24 hours
[11] = 7% MSM, 30 μg/ml oxacillin, 24 hours
[12] = 7% MSM, 60 μg/ml oxacillin, 24 hours
[13] = 8% MSM, 12 μg/ml oxacillin, 24 hours
[14] = 8% MSM, 30 μg/ml oxacillin, 24 hours
[15] = 8% MSM, 60 μg/ml oxacillin, 24 hours
[16] = 9% MSM, 12 μg/ml oxacillin, 24 hours
[17] = 9% MSM, 30 μg/ml oxacillin, 24 hours
[18] = 9% MSM, 60 μg/ml oxacillin, 24 hours
[19] = 10% MSM, 12 μg/ml oxacillin, 24 hours
[20] = 10% MSM, 12 μg/ml oxacillin, 48 hours
[21] = 10% MSM, 30 μg/ml oxacillin, 24 hours
[22] = 10% MSM, 60 μg/ml oxacillin, 24 hours
[23] = 11% MSM, 12 μg/ml oxacillin, 24 hours
[24] = 11% MSM, 12 μg/ml oxacillin, 48 hours

Compound: CS(C)(=O)=O [MSM, methylsulfonylmethane]
- effect on survival [1]: none of the concentrations of MSM tested had any effect on the survival
- average log reduction in colony count ([2]; 30 μg/ml methicillin, lower end of MSM concentrations, 24 hours): 3 log
- log reduction in colony count ([2]; 5% MSM, 60 μg/ml methicillin, 48 hours): 4.1 log
- log reduction in colony count ([2]; 6% MSM, 12 μg/ml methicillin, 48 hours): 4.1 log
- log reduction in colony count ([2]; 6% MSM, 30 μg/ml methicillin, 24 hours): 2.8 log
- log reduction ([2]; 16% MSM, 12 μg/ml methicillin, 24 hours): 2.2 log
- Average Log [3, 4]: 3.91 Log
- survival [3, 4]: 8.4 × 10^3 cfu/ml and 8.0 × 10^3 cfu/ml
- Average Log ([3]; 5% MSM, 12 μg/ml oxacillin, 48 hours): 3.6 Log
- Average Log ([3]; 5% MSM, 12 μg/ml oxacillin, 72 hours): 5.5 Log
- Average Log [3, 5]: 2.51 Log
- survival [3, 5]: 3.1 × 10^2 cfu/ml and 3.3 × 10^2 cfu/ml
- Average Log ([3]; 5% MSM, 30 μg/ml oxacillin, 48 hours): 3.8 Log
- Average Log ([3]; 5% MSM, 30 μg/ml oxacillin, 72 hours): 5.5 Log
- Average Log [3, 6]: 2.54 Log
- survival [3, 6]: 3.5 × 10^2 cfu/ml and 3.3 × 10^2 cfu/ml and 3.6 × 10^2 cfu/ml
- Average Log ([3]; 5% MSM, 60 μg/ml oxacillin, 48 hours): 3.5 Log
- growth ([3]; 5%, 10% and 16% MSM, no antibiotic, 24 hours): turbid growth
- Average Log [3, 7]: 3.92 Log
- survival [3, 7]: 8.6 × 10^3 cfu/ml and 8.5 × 10^3 cfu/ml and 8.0 × 10^3 cfu/ml
- Average Log ([3]; 6% MSM, 12 μg/ml oxacillin, 48 hours): 3.2 Log
- Average Log ([3]; 6% MSM, 12 μg/ml oxacillin, 72 hours): 5.5 Log
- Average Log [3, 8]: 2.46 Log
- survival [3, 8]: 2.9 × 10^2 cfu/ml
- Average Log ([3]; 6% MSM, 30 μg/ml oxacillin, 48 hours): 3.7 Log
- Average Log ([3]; 6% MSM, 30 μg/ml oxacillin, 72 hours): 5.5 Log
- Average Log [3, 9]: 2.38 Log
- survival [3, 9]: 2.4 × 10^2 cfu/ml
- Average Log ([3]; 6% MSM, 60 μg/ml oxacillin, 48 hours): 1.8 Log
- Average Log [3, 10]: 3.91 Log
- survival [3, 10]: 8.2 × 10^3 cfu/ml and 8.5 × 10^3 cfu/ml and 8.3 × 10^3 cfu/ml
- Average Log ([3]; 7% MSM, 12 μg/ml oxacillin, 48 hours): 3.9 Log
- Average Log ([3]; 7% MSM, 12 μg/ml oxacillin, 72 hours): 5.5 Log
- Average Log [3, 11]: 2.98 Log
- survival [3, 11]: 9.7 × 10^2 cfu/ml and 9.6 × 10^2 cfu/ml and 9.2 × 10^2 cfu/ml
- Average Log ([3]; 7% MSM, 30 μg/ml oxacillin, 48 hours): 2.3 Log
- Average Log ([3]; 7% MSM, 30 μg/ml oxacillin, 72 hours): 4.5 Log
- Average Log [3, 12]: 2.34 Log
- survival [3, 12]: 2.1 × 10^2 cfu/ml and 2.3 × 10^2 cfu/ml
- Average Log ([3]; 7% MSM, 60 μg/ml oxacillin, 48 hours): 4.0 Log
- Average Log [3, 13]: 3.82 Log
- survival [3, 13]: 6.6 × 10^3 cfu/ml and 6.9 × 10^3 cfu/ml
- Average Log ([3]; 8% MSM, 12 μg/ml oxacillin, 48 hours): 3.7 Log
- Average Log ([3]; 8% MSM, 12 μg/ml oxacillin, 72 hours): 5.5 Log
- Average Log [3, 14]: 3.07 Log
- survival [3, 14]: 1.18 × 10^3 cfu/ml and 1.16 × 10^3 cfu/ml
- Average Log ([3]; 8% MSM, 30 μg/ml oxacillin, 48 hours): 3.1 Log
- Average Log ([3]; 8% MSM, 30 μg/ml oxacillin, 72 hours): 5.5 Log
- Average Log [3, 15]: 2.67 Log
- survival [3, 15]: 4.6 × 10^2 cfu/ml and 5.0 × 10^2 cfu/ml
- Average Log ([3]; 8% MSM, 60 μg/ml oxacillin, 48 hours): 2.8 Log
- Average Log [3, 16]: 3.72 Log
- survival [3, 16]: 5.6 × 10^3 cfu/ml and 5.2 × 10^3 cfu/ml and 5.0 × 10^3 cfu/ml
- Average Log ([3]; 9% MSM, 12 μg/ml oxacillin, 48 hours): 3.4 Log
- Average Log ([3]; 9% MSM, 12 μg/ml oxacillin, 72 hours): 4.5 Log
- Average Log [3, 17]: 3.01 Log
- survival [3, 17]: 1.06 × 10^3 cfu/ml and 1.05 × 10^3 cfu/ml and 1.02 × 10^3 cfu/ml
- Average Log ([3]; 9% MSM, 30 μg/ml oxacillin, 48 hours): 2.4 Log
- Average Log ([3]; 9% MSM, 30 μg/ml oxacillin, 72 hours): 2.9 Log
- Average Log [3, 18]: 2.50 Log
- survival [3, 18]: 3.2 × 10^2 cfu/ml
- Average Log ([3]; 9% MSM, 60 μg/ml oxacillin, 48 hours): 2.2 Log
- Average Log [3, 19]: 3.76 Log
- survival [3, 19]: 5.8 × 10^3 cfu/ml and 5.6 × 10^3 cfu/ml and 6.0 × 10^3 cfu/ml
- Average Log [3, 20]: 2.7 Log
- survival [3, 20]: 5.6 × 10^2 cfu/ml
- Average Log ([3]; 10% MSM, 12 μg/ml oxacillin, 72 hours): 4.0 Log
- Average Log [3, 21]: 3.32 Log
- survival [3, 21]: 2.2 × 10^3 cfu/ml and 2.0 × 10^3 cfu/ml
- Average Log ([3]; 10% MSM, 30 μg/ml oxacillin, 48 hours): 2.6 Log
- Average Log ([3]; 10% MSM, 30 μg/ml oxacillin, 72 hours): 3.9 Log
- Average Log [3, 22]: 2.63 Log
- survival [3, 22]: 4.2 × 10^2 cfu/ml and 4.4 × 10^2 cfu/ml
- Average Log ([3]; 10% MSM, 60 μg/ml oxacillin, 48 hours): 2.2 Log
- Average Log [3, 23]: 3.91 Log
- survival [3, 23]: 8.2 × 10^3 cfu/ml and 8.5 × 10^3 cfu/ml and 8.0 × 10^3 cfu/ml
- Average Log [3, 24]: 2.8 Log
- survival [3, 24]: 6.4 × 10^2 cfu/ml and 5.8 × 10^2 cfu/ml and 6.5 × 10^2 cfu/ml
- Average Log ([3]; 11% MSM, 12 μg/ml oxacillin, 72 hours): 3.6 Log
- Average Log ([3]; 11% MSM, 30 μg/ml oxacillin, 24 hours): 3.57 Log
